Laboratory results published in the supplement of paper PMC10307832.

Tests used:
Assay in all cases: relative viability (nuclei count vs DMSO), 5 days (fraction); higher = more cells survive
[1] = compound: Nc1ncn([C@H]2C[C@H](O)[C@@H](CO)O2)c(=O)n1 [Decitabine] + CS(=O)(=O)N1CCN(Cc2cc3nc(-c4cccc5[nH]ncc45)nc(N4CCOCC4)c3s2)CC1 [Pictilisib] (partner 1 µM)
In short: (§1)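 Lung cancer cell lines were pin-tool dosed in 1536-well plates on the day after seeding, with either a lone drug or a fixed anchor-drug dose plus five library-drug doses (not always all listed) in √10 steps. Nuclei were counted on 4× images after 5 days. Relative viability is the ratio of treated-well to vehicle-well nuclei counts, with each value a median of duplicate plates.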

[2] = compound: COc1cc2c(Oc3ccc4[nH]c(C)cc4c3F)ncnc2cc1OCCCN1CCCC1 [Cediranib] + C[C@]1(O)C[C@@H](c2nc(-c3ccc4ccc(-c5ccccc5)nc4c3)c3c(N)nccn32)C1 [Linsitinib] (partner 1 µM)
In short: as §1

[3] = compound: COc1cc2c(Oc3ccc4[nH]c(C)cc4c3F)ncnc2cc1OCCCN1CCCC1 [Cediranib] + CC(C)C[C@H](NC(=O)[C@H](Cc1ccccc1)NC(=O)c1cnccn1)B(O)O [Bortezomib] (partner 0.002 µM)
In short: as §1

[4] = compound: COc1cc2c(Oc3ccc4[nH]c(C)cc4c3F)ncnc2cc1OCCCN1CCCC1 [Cediranib] + Nc1nc2[nH]cc(CCc3ccc(C(=O)N[C@@H](CCC(=O)O)C(=O)O)cc3)c2c(=O)[nH]1 [Pemetrexed] (partner 0.2 µM)
In short: as §1

Cell Line | relative viability ([1]; first compound 0.04 µM) | relative viability ([1]; first compound 0.1265 µM) | relative viability ([1]; first compound 0.4 µM) | relative viability ([1]; first compound 1.265 µM) | relative viability ([1]; first compound 4 µM) | relative viability ([2]; first compound 0.04 µM) | relative viability ([2]; first compound 0.1265 µM) | relative viability ([2]; first compound 0.4 µM) | relative viability ([2]; first compound 1.265 µM) | relative viability ([2]; first compound 4 µM) | relative viability ([3]; first compound 0.04 µM) | relative viability ([3]; first compound 0.1265 µM) | relative viability ([3]; first compound 0.4 µM) | relative viability ([3]; first compound 1.265 µM) | relative viability ([3]; first compound 4 µM) | relative viability ([4]; first compound 0.04 µM) | relative viability ([4]; first compound 0.1265 µM) | relative viability ([4]; first compound 0.4 µM) | relative viability ([4]; first compound 1.265 µM) | relative viability ([4]; first compound 4 µM)
LOU-NH91 | 0.518 | 0.478 | 0.517 | 0.518 | 0.495 | 0.905 | 1.2 | 0.915 | 0.969 | 0.759 | 0.409 | 0.475 | 0.517 | 0.513 | 0.488 | 0.447 | 0.347 | 0.357 | 0.337 | 0.36
LU99A | 0.369 | 0.325 | 0.355 | 0.308 | 0.311 | 0.517 |  | 0.565 | 0.518 | 0.573 | 1.27 |  | 1.12 | 0.942 | 1.17 | 0.173 |  | 0.172 | 0.2 | 0.17
LXF-289 | 0.75 | 0.808 | 0.471 | 0.4 | 0.317 | 0.986 | 0.903 | 0.93 | 0.942 | 0.902 | 1.04 | 0.87 | 0.969 | 0.97 | 0.958 | 1.1 |  | 0.8 | 0.936 | 0.863
NCI-H23 | 0.528 | 0.59 | 0.281 | 0.266 | 0.196 | 0.698 |  | 0.542 | 0.442 | 0.682 | 1.07 |  | 0.938 | 0.907 | 1.32 | 0.602 | 0.693 | 0.525 | 0.692 | 0.699
NCI-H322M | 0.408 | 0.537 | 0.53 | 0.397 | 0.424 | 1.01 | 0.997 | 0.879 | 0.856 | 1.09 | 1.29 | 1.56 | 1.32 | 1.24 | 1.28 | 0.64 | 0.684 | 0.592 | 0.648 | 0.572
NCI-H441 | 0.28 | 0.306 | 0.286 | 0.205 | 0.179 | 0.445 | 0.546 | 0.524 | 0.551 | 0.652 | 0.304 | 0.688 |  | 0.498 | 0.934 | 0.265 | 0.291 | 0.258 | 0.271 | 0.257
NCI-H460 | 0.389 | 0.549 | 0.524 | 0.373 | 0.334 | 0.86 | 0.757 | 0.702 | 0.727 | 0.676 | 1.06 | 1.23 | 1.01 | 0.987 | 1.39 | 0.0716 | 0.0662 | 0.0685 | 0.0585 | 0.0931
NCI-H520 | 0.315 | 0.271 | 0.241 | 0.222 | 0.198 | 1.08 |  | 0.809 | 0.806 | 0.908 | 0.734 |  | 0.687 | 0.462 | 0.622 | 0.668 | 0.789 | 0.623 | 0.602 | 0.563
NCI-H596 | 0.38 | 0.416 | 0.304 | 0.358 | 0.633 | 1.16 | 1.07 | 1.11 | 1.05 | 1.09 | 1.05 | 1.01 | 0.831 | 1 | 1.09 | 0.472 | 0.499 | 0.427 | 0.476 | 0.525
NCI-H647 | 0.504 | 0.566 | 0.42 | 0.191 | 0.214 | 1.34 | 1.13 | 1.15 | 1.11 | 1.41 | 1.1 | 1.02 | 0.845 | 0.728 | 1.16 | 0.185 | 0.254 | 0.2 | 0.178 | 0.172
NCI-H650 | 0.81 | 0.779 | 0.574 | 0.443 | 0.33 | 0.792 | 0.681 | 0.807 | 0.706 | 0.964 | 0.873 | 0.625 | 0.879 | 0.764 | 0.718 | 0.862 | 0.569 | 0.955 | 0.978 | 1.08
NCI-H661 | 0.346 | 0.344 | 0.372 | 0.288 | 0.242 | 0.509 | 0.733 | 0.596 | 0.527 | 0.743 | 0.907 | 1.11 | 0.793 | 0.805 | 1.16 | 0.974 | 0.927 | 0.935 | 0.891 | 1.03
NCI-H838 | 0.415 | 0.357 | 0.308 | 0.24 | 0.226 | 1.06 | 1.03 | 0.956 | 0.984 | 1.03 | 0.812 | 0.557 | 0.926 | 0.713 | 1.05 | 0.252 | 0.241 | 0.229 | 0.257 | 0.231
NCI-H1355 | 0.529 | 0.44 | 0.293 | 0.254 | 0.23 | 0.8 | 0.866 | 0.781 | 0.813 | 0.96 | 1.18 | 1.17 | 1.23 | 1.24 | 1.21 | 1.13 | 1.06 | 0.95 | 1.02 | 1.08
NCI-H1437 | 0.455 | 0.408 | 0.287 | 0.172 | 0.166 | 1.09 | 0.987 | 0.951 | 1.04 | 1.01 | 0.55 | 0.407 | 0.554 | 0.565 | 0.673 | 0.33 | 0.299 | 0.289 | 0.334 | 0.337
NCI-H1563 | 0.682 | 0.63 | 0.779 | 0.693 | 0.635 | 1.27 | 1.32 | 1.22 | 1.3 | 1.22 | 0.912 | 0.794 | 0.885 | 0.796 | 0.889 | 0.885 | 0.879 | 0.843 | 0.675 | 0.872
